Data taken from the supplement of paper PMC10627819.

Key:
[1] = system: S. aureus DSM 20231; assay: fitness (endpoint OD595 vs no drug) (fraction); higher = more growth
Summary of the method: (§1)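 Each well of a 384-well plate received 30 µl of culture at OD595 0.01, or 55 µl for S. pneumoniae. TSB, LB Lennox or CY served as media at 37 °C. OD595 was taken every 30 min for 14 h and corrected by subtracting the first reading. Fitness is the optical density at stationary-phase entry divided by the robust mean of no-drug controls, capped at 1.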

[2] = system: S. pneumoniae D39V; assay: as above
Summary of the method: as §1

[3] = system: S. aureus Newman; assay: as above
Summary of the method: as §1

[4] = system: B. subtilis 168; assay: as above
Summary of the method: as §1

[5] = system: S. aureus DSM 20231; assay: Bliss interaction score (quartile over a dose matrix) (fitness difference); higher = more antagonism (negative = synergy)
Summary of the method: (§2)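 At entry into stationary phase, OD595 was recorded and divided by the robust mean of the no-drug wells on that plate, with any value above 1 set to 1. This gives the fitness measure used throughout. Single-drug fitness was inferred from combination data, and the Bliss score, observed minus product-expected fitness, is shown as quartiles across technical, biological and donor/recipient replicates.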

[6] = system: S. pneumoniae D39V; assay: as above
Summary of the method: as §2

[7] = system: S. aureus Newman; assay: as above
Summary of the method: as §2

[8] = system: B. subtilis 168; assay: as above
Summary of the method: as §2
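For Bliss interaction score (quartile over a dose matrix) in this document: first quartile when negative (synergy) and third quartile when positive (antagonism).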

O=C(O[C@@H]1Cc2c(O)cc(O)cc2O[C@@H]1c1cc(O)c(O)c(O)c1)c1cc(O)c(O)c(O)c1 [EGCG] + C[n+]1ccc(-c2cc[n+](C)cc2)cc1 [Paraquat]
fitness
Conditions	first compound 6.25 µg/mL	first compound 12.5 µg/mL	first compound 25 µg/mL	first compound 50 µg/mL
[1], partner 1.25 µg/mL	–	0.792	0.774	–
[1], partner 2.5 µg/mL	–	0.767	0.827	0.609
[1], partner 5 µg/mL	–	0.757	0.733	0.56
[2], partner 1.5 µg/mL	–	0.953	≥ 1	0.952
[2], partner 3 µg/mL	–	0.971	0.999	0.839
[2], partner 6 µg/mL	–	0.91	≥ 1	≥ 1
[3], partner 1.25 µg/mL	–	0.709	0.579	–
[3], partner 2.5 µg/mL	–	0.691	0.812	–
[3], partner 5 µg/mL	–	–	0.796	0.787
[4], partner 1.25 µg/mL	0.912	–	–	–
[4], partner 2.5 µg/mL	0.918	–	–	–
[4], partner 5 µg/mL	0.836	0.691	–	–

Conditions	Bliss interaction score
[5]	-0.0973
[6]	0.0566
[7]	-0.052
[8]	0.0809

O=C(O[C@@H]1Cc2c(O)cc(O)cc2O[C@@H]1c1cc(O)c(O)c(O)c1)c1cc(O)c(O)c(O)c1 [EGCG] + Cc1cc(NS(=O)(=O)c2ccc(N)cc2)no1 [Sulfamethoxazol]
fitness
Conditions	partner 1 µg/mL	partner 2 µg/mL	partner 4 µg/mL
[1], first compound 12.5 µg/mL	0.841	0.863	0.854
[1], first compound 25 µg/mL	0.769	0.842	0.833
[1], first compound 50 µg/mL	0.75	0.733	0.795
[2], first compound 12.5 µg/mL	0.934	0.905	0.965
[2], first compound 25 µg/mL	0.941	0.966	0.905
[2], first compound 50 µg/mL	0.951	≥ 1	0.725
[3], first compound 12.5 µg/mL	0.806	0.806	0.786
[3], first compound 25 µg/mL	0.764	0.801	0.779
[3], first compound 50 µg/mL	0.685	0.783	0.772
[4], first compound 6.25 µg/mL	0.881	0.815	0.901
[4], first compound 25 µg/mL	–	0.299	0.341

fitness, one replicate
Conditions	first compound 6.25 µg/mL	first compound 12.5 µg/mL	first compound 25 µg/mL	first compound 50 µg/mL
[3], partner 8 µg/mL	–	0.712	0.703	0.675
[4], partner 0.5 µg/mL	0.831	0.551	0.271	–

Conditions	Bliss interaction score
[5]	0.071
[6]	0.0423
[7]	0.0456
[8]	-0.0762
